One experiment deals with T1, hSSTR-3 (Homo sapiens, UniProt P32745).
T1 construct: expressed in transfected cells; crude membranes
Kind of experiment: Somatostatin receptor binding assay, [125I-Tyr11]somatostatin-14, transfected CHO-K1 membranes. The note with it: 0.05 nM [125I-Tyr11]somatostatin-14, 30 min at 30° C.

A further experiment has as its target T2, hSSTR-2 (Homo sapiens, UniProt P30874).
T2 construct: expressed in transfected cells; crude membranes
The description is as above. The conditions noted are these: 0.05 nM [125I-Tyr11]somatostatin-14, 30 min at 30° C.

The target in another experiment is T3, hSSTR-5 (Homo sapiens, UniProt P35346).
T3 construct: expressed in transfected cells; crude membranes
T3 sequence (P35346 whole entry): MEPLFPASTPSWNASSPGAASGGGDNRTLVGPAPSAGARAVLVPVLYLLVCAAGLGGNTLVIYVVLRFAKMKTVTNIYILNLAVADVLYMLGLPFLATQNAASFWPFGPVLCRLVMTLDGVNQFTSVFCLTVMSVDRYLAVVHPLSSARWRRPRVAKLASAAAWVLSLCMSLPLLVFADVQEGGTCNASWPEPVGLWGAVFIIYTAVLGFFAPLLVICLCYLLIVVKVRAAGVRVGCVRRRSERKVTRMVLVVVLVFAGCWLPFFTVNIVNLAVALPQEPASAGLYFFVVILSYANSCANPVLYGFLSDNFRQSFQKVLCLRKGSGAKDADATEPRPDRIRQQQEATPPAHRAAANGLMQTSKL
The experiment is described as above. The note with it: 0.05 nM [125I-Tyr11]somatostatin-14, 30 min at 30° C.

Another experiment concerns the target T4, hSSTR-4 (Homo sapiens, UniProt P31391).
T4 construct: expressed in transfected cells; crude membranes
The description is as above. The conditions noted are these: 0.05 nM [125I-Tyr11]somatostatin-14, 30 min at 30° C.

A further experiment relates to acromegalics. The conditions noted are these: cited from earlier work.
The next experiment relates to alloxan diabetic dogs. The note with it: cited from earlier work.
In a further experiment the test system is normal humans. The note with it: cited from earlier work.
In experiment [1] the test system is fatty (fa/fa) Zucker rats. Kind of experiment: Reduction of glycerol and triglycerides, chronic treatment in fatty Zucker rats. It counts as in vivo, rat. The source says: The obese (fa/fa) Zucker and its derivative in the Zucker diabetic fatty (ZDF/Drt-fa) are excellent models of diabetes-induced dyspilidemia (Shafrir, E., Diabetes/Metabolism Rev. 8:179-208 (1992); Peterson, R. G., et al., ILAR News 32:16-19 (1990)). The animals develop progressive hypertriglyceridemia and hypercholesterolemia.
Eleven male fatty Zucker rats weighing about 450 grams were randomly divided into 2 groups and their initial body weights recorded. The animals were housed in pairs in a normal 12 hour light/dark cycle at 20±2° C. and fed a standard laboratory rat diet (Beekay rat and mouse diet, Bantin & Kingman, Hull, Humberside, U.K.) overnight ad libitum.
For the group assigned to receive drug treatment, the rats received BIM-23268C at 3 mg/kg, by subcutaneous injection twice a day at 10:00 a.m. and 5:00 p.m. The other group was treated with a subcutaneous injection of 0.1 ml/100 g of saline twice a day at 10:00 a.m. and 5:00 p.m. The animals were subjected to the BIM-23268 or saline treatment for a total of six days.
On the last day of treatment (day 6), food was removed at 5:00 p.m. and the rats fasted overnight. At 9:00 a.m. the next day, the animals were subjected to a glucose challenge, given as a 0.8 gram/kg of glucose orally. Periodic 400 ul of blood samples were taken from the tail vein (Peterson, R. G., ILAR News 32:16-19 (1990)) at 60 min. and 30 min. before, and at 30, 60, 90, and 120 min. after the administration of the glucose challenge (08. gram/kg orally). Aprotinin (Traysylol, Bayer UK, Hayward's Heath, W. Sussex, U.K.) and heparin (Sigma Chemical Co., Poole, Dorset, U.K.) were added to the blood samples to a final concentration of 400 KIU/ml and 100 units/ml, respectively. Plasma fractions were prepared from these samples by centrifugation at 400×G in a microfuge, for the estimation of triglycerides and glycerol. Samples were then stored at -80° C. until assayed.
Plasma glycerol and triglycerides were determined using the Sigma Enzymatic (Tinder) calorimetric assay kit (Cat #337-B, Sigma Chemical Co., Poole, Dorset, U.K.) and measuring absorbance at 540 nm in a spectrophotometer.

[2] abbreviates: 3 mg/kg s.c. twice a day, 6 days, after oral glucose challenge 0.8 gram/kg, vs saline group.
Where [3] appears, read: 3 mg/kg s.c. twice a day, 6 days, samples 30 and 60 min before oral glucose challenge.

The values below come from patent US6004928A, “Method of treating hyperlipidemia” (Biomeasure, Incorporated, priority 1998, dated 1999).

Broadly, the Ki is the equilibrium dissociation constant of an inhibitor or competing ligand from its target. A low value points to a stronger hold on the target.

Structures are written as SMILES. Positions of bridges follow the written chain, without caps; N, C: chain ends. Non-standard residues stand in square brackets, D forms with d. Residues, ends and D or L forms follow the SMILES beside them.

T1 sequence (P32745 whole entry): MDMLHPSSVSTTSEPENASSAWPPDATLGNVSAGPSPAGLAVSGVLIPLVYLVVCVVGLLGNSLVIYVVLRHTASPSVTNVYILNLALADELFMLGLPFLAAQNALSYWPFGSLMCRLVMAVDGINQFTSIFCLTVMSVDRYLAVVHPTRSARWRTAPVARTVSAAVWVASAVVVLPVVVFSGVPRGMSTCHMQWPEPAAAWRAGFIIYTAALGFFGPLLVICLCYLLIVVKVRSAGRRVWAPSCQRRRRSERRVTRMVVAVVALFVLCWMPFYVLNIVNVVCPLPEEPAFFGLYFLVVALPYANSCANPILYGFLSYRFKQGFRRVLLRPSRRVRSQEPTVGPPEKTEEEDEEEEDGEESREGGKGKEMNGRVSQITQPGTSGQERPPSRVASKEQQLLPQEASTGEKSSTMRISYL
T2 sequence (P30874 whole entry): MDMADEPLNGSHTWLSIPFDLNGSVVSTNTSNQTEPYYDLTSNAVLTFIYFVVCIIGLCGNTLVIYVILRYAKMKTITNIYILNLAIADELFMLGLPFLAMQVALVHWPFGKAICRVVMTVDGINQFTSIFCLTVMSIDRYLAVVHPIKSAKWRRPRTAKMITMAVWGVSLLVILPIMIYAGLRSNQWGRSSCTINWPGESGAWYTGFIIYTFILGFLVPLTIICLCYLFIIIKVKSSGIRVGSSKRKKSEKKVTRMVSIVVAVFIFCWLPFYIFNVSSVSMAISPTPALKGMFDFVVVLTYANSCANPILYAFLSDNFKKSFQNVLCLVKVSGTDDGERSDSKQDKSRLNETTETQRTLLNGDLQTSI
T4 sequence (P31391 whole entry): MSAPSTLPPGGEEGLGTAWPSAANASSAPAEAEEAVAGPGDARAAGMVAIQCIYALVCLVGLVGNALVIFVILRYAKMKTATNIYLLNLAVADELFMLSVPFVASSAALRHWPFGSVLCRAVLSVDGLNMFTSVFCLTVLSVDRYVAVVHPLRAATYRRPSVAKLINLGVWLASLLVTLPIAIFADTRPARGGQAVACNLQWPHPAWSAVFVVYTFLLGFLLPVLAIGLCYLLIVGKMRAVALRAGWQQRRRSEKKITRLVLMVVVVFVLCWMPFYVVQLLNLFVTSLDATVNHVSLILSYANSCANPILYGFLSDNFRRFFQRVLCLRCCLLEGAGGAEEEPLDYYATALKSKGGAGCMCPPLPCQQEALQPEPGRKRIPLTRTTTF
Experimental for hSSTR-2: (§1) CHO-K1 (ovary, Chinese hamster) cells were obtained from ATCC (ATCC No. CCL 61). The cells were grown and maintained in Ham's F12 media (Gibco BRL, Grand Island, N.Y.) supplemented with 10% fetal bovine serum under standard tissue culture conditions. For transfection, the cells were seeded at a density 1×10^6 /60-cm plate (Baxter Scientific Products, McGraw Park, Ill.). […] CHO-K1 clonal cell lines that have stably inherited the transfected DNA were selected for growth in Ham's F12 media containing 10% fetal bovine serum and 0.5 mg/ml of G418 (Sigma). The cells were ring-cloned and expanded in the same media for analysis.
(§2) Transfected cell lines expressing the human SSTR receptors were clonally expanded in culture and used in the following SSTR binding protocol.
(§3) Crude membranes were prepared by homogenization of the transfected cells in 20 ml of ice-cold 50 mM Tris-HCl with a POLYTRON homogenizer (setting 6, 15 sec). Buffer was added to obtain a final volume of 40 ml, and the homogenate was centrifuged in a Sorval SS-34 rotor at 39,000 g for 10 min at 0-4° C. The resulting supernatant was decanted and discarded. The pellet was rehomogenized in ice-cold buffer, diluted, and centrifuged as before. The final pellet was resuspended in the 10 mM Tris HCl and held on ice for the receptor binding assay.
The final assay volume was 0.3 ml. […]
Experimental for hSSTR-3: as §1, §2, §3
The final assay volume was 0.3 ml. […]
Experimental for hSSTR-4: as §1, §2, §3
The final assay volume was 0.3 ml. […]
Experimental for hSSTR-5: as §1, §2, §3
The final assay volume was 0.3 ml. […]

Regarding `C[C@@H](O)[C@@H]1NC(=O)[C@H](CCCCN)NC(=O)[C@@H](Cc2c[nH]c3ccccc23)NC(=O)[C@H](Cc2ccc(O)c(I)c2)NC(=O)[C@H](Cc2ccccc2)NC(=O)[C@@H](N)CSSC[C@@H](C(N)=O)NC(=O)[C@H](Cc2ccccc2)NC1=O` [BIM-23313, H-Cys-Phe-Tyr(I)-D-Trp-Lys-Thr-Phe-Cys-NH2], the inhibition constant (Ki) came to 0.0255 µM at hSSTR-3, 0.00478 µM on hSSTR-2, 0.0003 µM on hSSTR-5 and 0.0553 µM at hSSTR-4.

For the compound `C[C@H](N)C(=O)NCC(=O)N[C@H]1CSSC[C@@H](C(=O)O)NC(=O)[C@H](CO)NC(=O)[C@H]([C@@H](C)O)NC(=O)[C@H](Cc2ccccc2)NC(=O)[C@H]([C@@H](C)O)NC(=O)[C@H](CCCCN)NC(=O)[C@H](Cc2c[nH]c3ccccc23)NC(=O)[C@H](Cc2ccccc2)NC(=O)[C@H](Cc2ccccc2)NC(=O)[C@H](CC(N)=O)NC(=O)[C@H](CCCCN)NC1=O` [somatostatin], the plasma triglyceride concentrations result with acromegalics, in the experiment with alloxan diabetic dogs and in the experiment with normal humans was “reduce plasma triglyceride concentrations” each time.

For `C[C@@H](O)[C@@H]1NC(=O)[C@H](CCCCN)NC(=O)[C@@H](Cc2c[nH]c3ccccc23)NC(=O)[C@H](Cc2ccccc2)NC(=O)[C@H](Cc2ccccc2)NC(=O)[C@@H](N)CSSC[C@@H](C(N)=O)NC(=O)[C@H](Cc2ccccc2)NC1=O` [BIM-23268, H-Cys-Phe-Phe-D-Trp-Lys-Thr-Phe-Cys-NH2] (H-CFF[dW]KTFC-NH2; disulfide 1-8 (inferred)), in experiment [1] (setting [2]), the “plasma glycerol through the 2-hour test period” value is “significantly lower” and the “plasma triglycerides through the 2-hour test period” value is on record as “significantly lower”. Moreover, in experiment [1] (setting [3]), the plasma glycerol result is recorded as “significantly lowered” and the plasma triglycerides result is recorded as “significantly lowered”. Besides, in experiment [1] (6-day treatment period at the prescribed dose), the hypertriglyceridemia entry is given as “effective in reducing hypertriglyceridemia”.
